In ChEMBL document CHEMBL1134153, “Novel bicyclic lactam inhibitors of thrombin: potency and selectivity optimization through P1 residues” (Bioorg Med Chem Lett, 2001):

Experiments:
[1] = target: Prothrombin (Rattus norvegicus, UniProt P18292); experiment: In vitro ability to inhibit the amidolytic activity of thrombin
[2] = test system: Rattus norvegicus; experiment: Tested for in vivo activated partial thromboplastin time in rat arterial thrombosis model; type: functional
[3] = test system: Rattus norvegicus; experiment: Tested for in vivo thrombin time in rat arterial thrombosis model; type: functional
[4] = test system: Rattus norvegicus; experiment: Tested for in vivo mean occlusion time in rat arterial thrombosis model; type: functional

Compound | Ki [1] | APTT [2] | TT [3] | MOT [4]
N=C(N)NCCCCNC(=O)C1CC[C@H]2CN(C(=O)CCc3ccccc3)CC(=O)N12 (some centres undefined) | 900 nM | – | – | –
N=C(N)c1ccc(CNC(=O)[C@@H]2CC[C@H]3CN(S(=O)(=O)Cc4ccccc4)CC(=O)N32)cc1 | 8 nM | 0.967 min | 7.58 min | >60 min
Cc1cc(C(=N)N)ccc1CNC(=O)[C@@H]1CC[C@H]2CN(S(=O)(=O)Cc3ccccc3)CC(=O)N21 | 7 nM | 0.9 min | 6.55 min | 46 min
N/C(=N\O)N1CCC(CNC(=O)[C@@H]2CC[C@H]3CN(S(=O)(=O)Cc4ccccc4)CC(=O)N32)CC1 | – | 0.633 min | 3.85 min | 48 min
O=C(NC[C@H]1CC[C@H](NO)CC1)[C@@H]1CC[C@H]2CN(S(=O)(=O)Cc3ccccc3)CC(=O)N21 | 1100 nM | – | – | –
N=C(N)N1CCC(CNC(=O)[C@@H]2CC[C@H]3CN(S(=O)(=O)Cc4ccccc4)CC(=O)N32)CC1 | 78 nM | – | – | –
N=C(N)NCCC[C@H](NC(=O)[C@@H]1CC[C@H]2CN(C(=O)CCc3ccccc3)CC(=O)N21)C(=O)c1nccs1 | 0.6 nM | – | – | –

Second part, led by results:

Ki [1] | Compound | APTT [2] | TT [3] | MOT [4]
180 nM | N=C(N)N1CCC(CNC(=O)[C@@H]2CC[C@H]3CN(C(=O)CCc4ccccc4)CC(=O)N32)CC1 | – | – | –
100 nM | N[C@H]1CC[C@H](CNC(=O)C2CC[C@H]3CN(S(=O)(=O)Cc4ccccc4)CC(=O)N23)CC1 (some centres undefined) | – | – | –
> 10000 nM | N/C(=N/O)c1ccc(CNC(=O)[C@@H]2CC[C@H]3CN(S(=O)(=O)Cc4ccccc4)CC(=O)N32)cc1 | – | – | –
1000 nM | O=C(NCc1ccc2nc[nH]c2c1)[C@@H]1CC[C@H]2CN(S(=O)(=O)Cc3ccccc3)CC(=O)N21 | – | – | –
